Reference: US20020146823A1, “Method for promoting hematopoietic and mesenchymal cell proliferation and differentiation” (The University of Southern California, priority 1997, published 2002)

What was measured:
[1] = tested on: enriched HPC from C57B1/6 mice; experiment: Murine HPC colony formation in semi-solid culture; assay type: cell-based
Experimental: HPC were harvested from C57B1/6 mice by immunomagnetic affinity chromatography and placed in semi-solid cultures with optimal growth medium. At various times after initiation of culture, the formation of colonies and the size of the colonies (number of cells/colony) were assessed microscopically.
Female C57B1/6 mice were purchased from Simonson and used as a source of bone marrow cells in this study. The bone marrow was harvested, either from untreated mice or from mice injected with 5-fluorouracil (5-FU) (3 mg/mouse; approximately 150 mg/kg) in the tail vein 48 hours before harvest, from the femur and tibia of mice by flushing with phosphate buffered saline (PBS), pH 7.4, containing 2% fetal bovine serum (FBS) with a 21-gauge needle. The eluant from the flushing was centrifuged and the pellet was resuspended at 4×10^7 nucleated cells/ml in PBS containing PBS containing 2% FBS and 5% normal rat serum.
The reagents for immunomagnetic labeling were purchased from Stem Cell Technologies, Inc. (Vancouver, BC). […]

human PBMC = experiment: Proliferative response of human lymphocytes (3H-thymidine incorporation); assay type: cell-based; details: absence of mitogen
Experimental: Upon stimulation of lymphocytes with mitogen or antigen, these cells undergo blastogenesis and proliferation. In the absence of such stimuli, proliferation is seldom observed. One method to measure cellular proliferation in a short term assay is via measurement of the amount of the nucleotide thymidine that is incorporated into newly synthesized DNA. The effect of All on the proliferation of human PBMC in the presence and absence of pokeweed mitogen (“PWM”) was assessed.
Human PBMC were collected from normal volunteers and isolated via Ficoll Hypaque (Sigma Chemical, St. Louis) density centrifugation. After isolation of the buffy coat, the cells were washed 3× to remove the Ficoll Hypaque, counted in trypan blue (0.01%) and resuspended at a concentration of 1×10^6 cells/ml in RPMI 1640 containing 10% fetal calf serum and antibiotics. A 100 μl aliquot of cells was added to each well. Thereafter, various concentrations (0.1 to 1000 μg/ml final concentration) of AII in RPMI 1640 containing 10% FCS and antibiotics were added to various wells in triplicate. To the appropriate wells, PWM (20 μg/ml final concentration) was added. These plates were incubated at 37° C. in 5% CO2 for 48 hours. […] These filters were dried, placed in scintillation fluid and the amount of thymidine incorporated was determined by beta counting.

[2] = tested on: Rat Peritoneal Macrophages; experiment: Phagocytic capability of rat peritoneal macrophages (opsonized yeast ingestion); assay type: cell-based, Sprague Dawley rats
Experimental: Resident peritoneal macrophages have very little phagocytic activity. Exposure of macrophages to inflammatory or activating agents will increase this macrophage function. Resident peritoneal macrophages were harvested from C57B1/6 mice or Sprague Dawley rats and resuspended at a concentration of 1×10^6 cells/ml in phosphate buffered saline (PBS). Five separate 0.5 ml cell aliquots were placed on a glass coverslip in a 35 mm petri dish. Prior to incubation, either 0.5 ml of PBS, AII, or AII analogues or fragments at between 1-1000 ug/ml final concentration was added to the individual cover slips. The dishes containing the cover slips were then incubated at 37° C. for 4 hours, after which the cover slips were washed 3 to 6 times with PBS. Opsonized yeast particles (Sigma Chemical Co.) (yeast opsonized with adult serum from the same species as that under study) were added to the cover slips and incubated for 2 hours, after which the cover slips were again washed with PBS and inverted onto a glass slide. The number of macrophages that ingested yeast and the number of yeast per macrophage ingested was then determined microscopically. At least 100 macrophages per coverslip were counted. The data from this study are summarized in Tables 3 and 4 and FIGS. 1 and 2.

Asp-Arg-Val-Tyr-Ile-His-Pro-Phe (DRVYIHPF; printed: Asp-Arg-Val-Tyr-Ile-His-Pro-Phe) [AII, octapeptide present in humans and other species; known pressor agent, commercially available]
HPC colony size ([1]; 0 to 100 μg/ml, normal and 5-FU treated): increases proportionately with exposure to increased concentrations of AII
macroscopic colonies ([1]; day 14, enriched HPC from untreated (normal) mice, 100 μg/ml): 100
thymidine incorporation (human PBMC): no increase
#/Cell ([2]; peptide 100 μg/ml): 1.14
% w/Yeast ([2]; peptide 100 μg/ml): 35.7%
Number of Macrophages with Yeast (Yeast Number) 0 ([2]; peptide 100 μg/ml): 90
Number of Macrophages with Yeast (Yeast Number) 1-3 ([2]; peptide 100 μg/ml): 30
Number of Macrophages with Yeast (Yeast Number) ≧7 ([2]; peptide 100 μg/ml): 0
#/Cell ([2]; peptide 1000 μg/ml): 2.86
% w/Yeast ([2]; peptide 1000 μg/ml): 70.4%
Number of Macrophages with Yeast (Yeast Number) 0 ([2]; peptide 1000 μg/ml): 50
Number of Macrophages with Yeast (Yeast Number) 1-3 ([2]; peptide 1000 μg/ml): 54
Number of Macrophages with Yeast (Yeast Number) 4-6 ([2]; peptide 1000 μg/ml): 40
Number of Macrophages with Yeast (Yeast Number) ≧7 ([2]; peptide 1000 μg/ml): 25
